Source: PMC12055641, “The Study of Antistaphylococcal Potential of Omiganan and Retro-Omiganan Under Flow Conditions” (Probiotics and Antimicrobial Proteins, 2024)
No end group written: not given here.

Tests used:
[1] = system: human keratinocytes (HaCaT); assay type: cell-based; conditions: 24 h
Experimental: To evaluate the cytotoxicity of the peptides (IC50), the classic MTT assay on 96-well plates was performed for human keratinocytes (HaCaT) which were acquired from the ATCC. The assay utilizes colorimetric determination of the cell metabolic activity, and the color intensity reflects the number of live cells that can be measured spectrophotometrically. […] DMSO was added to the control cells at a final concentration of 1.0% (v/v), which was related to the maximum concentration of the solvent compounds used in the experiment. After 24 h of incubation at 37 °C (humidified 5% CO2 incubator) with the peptides, a medium containing 1 mg/mL of MTT was added to the wells up to a final concentration of 0.5 mg/mL. Subsequently, the plates were incubated at 37 °C for 4 h. Then, the medium was aspirated, and the formazan product was solubilized with DMSO. The background absorbance at 630 nm was subtracted from that at 570 nm for each well (Epoch, BioTek Instruments, USA). Six replicates were conducted for each concentration. All experiments were repeated at least twice and the resulting IC50 values were calculated with GraFit 7 software (v. 7.0, Erithacus, Berkley, CA, USA).

[2] = system: S. aureus ATCC 6538 biofilm; conditions: ATCC 6538, reference strain
[3] = system: S. aureus ATCC 6538 biofilm; conditions: ATCC 6538, reference strain; remark: listed apart in the source
[4] = system: S. aureus ATCC 6538; conditions: ATCC 6538, reference strain
[5] = system: S. aureus clinical strain 031S
Excerpt: (§1) Clinical S. aureus strains were collected from patients with atopic dermatitis during their visits to the Outpatient Clinic and hospitalization in the Department of Dermatology, Venereology and Allergology at Medical University of Gdańsk (following the approval from the ethics committee, Approval Number NKBBN/242–477/2014). Reference strains of S. aureus ATCC 25923, S. aureus ATCC 33591, S. aureus ATCC 9144, and S. aureus ATCC 12598 were obtained from the American Type Culture Collection. All the strains were stored at − 80 °C in Roti®-Store cryo vials (Carl Roth GmbH, Karlsruhe, Germany) and before the tests were transferred into fresh Mueller–Hinton Medium (BioMaxima, Lublin, Poland) and incubated for 24 h at 37 °C. Subsequently, each bacterial inoculum was seeded on Mueller–Hinton agar plates (BioMaxima) and incubated again for 24 h. The cultures prepared in this way were used in further antimicrobial assays. Minimum inhibitory concentrations (MICs) were determined according to the Clinical and Laboratory Standards Institute recommendations. […] The experiments were conducted on 96-well microtiter plates, with a final volume of 100 μL. Additionally, in the case of daptomycin, the medium was supplemented with Ca^2+ (50 mg/L). Cell densities were adjusted spectrophotometrically (Multiskan™ GO Microplate Spectrophotometer, Thermo Scientific) at 600 nm. The MICs were taken as the lowest drug concentration at which a visible growth of the microorganisms was inhibited. Minimum biofilm eliminating concentrations (MBECs) were determined on 96-well flat-bottomed microtiter polystyrene plates with resazurin (7-hydroxy-3H-phenoxazin-3-one 10-oxide sodium salt) as a cell viability reagent. To do this, the plates were filled with 100 μL of the initial inoculums of bacteria (0.5 × 10^7 CFU/mL) in the Mueller–Hinton broth and incubated for 24 h at 37 °C. […] After 24 h of incubation, 20 μL of resazurin (4 mg/mL) was added to each well and the MBEC values were read. Minimum biofilm inhibitory concentrations (MBICs) were also determined on 96-well flat-bottomed microtiter polystyrene plates as described previously. To do this, 50 μL of the compounds in the concentration range, diluted MHB, were prepared. Subsequently, the 50 μL of the staphylococcal inoculums were added to reach the same density of bacteria as that in the MBEC assay. After 24 h of incubation at 37 °C, the wells were rinsed three times with PBS and the fresh medium (100 μL) with resazurin (0.6 mg/mL) was added. Then, after 1 h of incubation, MBICs were read. […] All experiments were conducted in triplicate.

[6] = system: S. aureus ATCC 25923; conditions: ATCC 25923, reference strain
Excerpt: as §1

[7] = system: S. aureus ATCC 9144; conditions: ATCC 9144, reference strain
Excerpt: as §1

[8] = system: S. aureus clinical strain 004N (MRSA) biofilm; conditions: clinical strain 004N biofilm, 24 h
Excerpt: as §1

[9] = system: S. aureus clinical strain 043SC (MRSA); conditions: 24 h
Excerpt: as §1

[10] = system: S. aureus ATCC 12598 biofilm; conditions: ATCC 12598, reference strain
Excerpt: as §1

[11] = system: S. aureus ATCC 25923 biofilm; conditions: ATCC 25923, reference strain
Excerpt: as §1

[12] = system: S. aureus clinical strain 030N
Excerpt: as §1

[13] = system: S. aureus clinical strain 060S biofilm
Excerpt: as §1

[14] = system: S. aureus clinical strain 009S biofilm
Excerpt: as §1

[15] = system: biofilm of reference and clinical strains of staphylococci (S. aureus); conditions: for mean MBIC (initial values): average over 14 strains, polystyrene 96-well plates, not corrected
Excerpt: as §1

[16] = system: S. aureus clinical strain 051N (MRSA); conditions: 24 h
Excerpt: as §1

[17] = system: S. aureus clinical strain 004N (MRSA); conditions: 24 h
Excerpt: as §1

[18] = system: S. aureus clinical strain 015N (MRSA); conditions: 24 h
Excerpt: as §1

[19] = system: S. aureus ATCC 9144 biofilm; conditions: ATCC 9144, reference strain
Excerpt: as §1

[20] = system: S. aureus ATCC 33591 (MRSA); conditions: ATCC 33591, 24 h
Excerpt: as §1

[21] = system: reference and clinical strains of staphylococci (S. aureus); conditions: 24 h
Excerpt: as §1

[22] = system: S. aureus clinical strain 060S
Excerpt: as §1

[23] = system: S. aureus clinical strain 051N (MRSA) biofilm; conditions: clinical strain 051N biofilm, 24 h
Excerpt: as §1

[24] = system: S. aureus clinical strain 005S biofilm
Excerpt: as §1

[25] = system: S. aureus clinical strain 043SC (MRSA) biofilm; conditions: clinical strain 043SC biofilm, 24 h
Excerpt: as §1

[26] = system: S. aureus ATCC 12598; conditions: ATCC 12598, reference strain
Excerpt: as §1

[27] = system: S. aureus clinical strain 005S
Excerpt: as §1

[28] = system: S. aureus clinical strain 015N (MRSA) biofilm; conditions: clinical strain 015N biofilm, 24 h
Excerpt: as §1

[29] = system: S. aureus ATCC 33591 (MRSA) biofilm; conditions: ATCC 33591, 24 h
Excerpt: as §1

[30] = system: S. aureus clinical strain 031S biofilm
Excerpt: as §1

[31] = system: S. aureus clinical strain 009S
Excerpt: as §1

[32] = system: S. aureus clinical strain 030N biofilm
Excerpt: as §1

Substance: ILRWPWWPWRRK-NH2 [Omiganan AcO^−]
- IC50 [1]: 73.72 µg/mL
- MBEC [2]: 64 µg/mL
- MBIC [3]: 32 µg/mL
- MIC [4]: 8 µg/mL
- MIC [5]: 1 µg/mL
- MIC [6]: 16 µg/mL
- MIC [7]: 4 µg/mL
- MBEC [8]: 32 µg/mL
- MBIC [8]: 8 µg/mL
- MIC [9]: 8 µg/mL
- MBEC [10]: 32 µg/mL
- MBIC [10]: 16 µg/mL
- MBEC [11]: 128 µg/mL
- MBIC [11]: 32 µg/mL
- MIC [12]: 8 µg/mL
- MBEC [13]: 16 µg/mL
- MBIC [13]: 1 µg/mL
- MBEC [14]: 16 µg/mL
- MBIC [14]: 1 µg/mL
- mean MBEC (initial values) ([15]; 24 h): 38.86 µg/mL
- mean MBIC (initial values) [15]: 14.54 µg/mL
- MIC [16]: 8 µg/mL
- MIC [17]: 8 µg/mL
- MIC [18]: 8 µg/mL
- MBEC [19]: 16 µg/mL
- MBIC [19]: 16 µg/mL
- MIC [20]: 16 µg/mL
- mean MIC (initial values) [21]: 6.82 µg/mL
- MIC [22]: 1 µg/mL
- MBEC [23]: 64 µg/mL
- MBIC [23]: 16 µg/mL
- MBEC [24]: 16 µg/mL
- MBIC [24]: 1 µg/mL
- MBEC [25]: 16 µg/mL
- MBIC [25]: 16 µg/mL
- MIC [26]: 8 µg/mL
- MIC [27]: 1 µg/mL
- MBEC [28]: 32 µg/mL
- MBIC [28]: 16 µg/mL
- MBEC [29]: 64 µg/mL
- MBIC [29]: 32 µg/mL
- MBEC [30]: 16 µg/mL
- MIC [31]: 0.5 µg/mL
- MBEC [32]: 32 µg/mL
- MBIC [32]: 16 µg/mL

Substance: ILRWPWWPWRRK-NH2 [Omiganan Cl^−]
- IC50 [1]: 63.99 µg/mL
- MBEC [2]: 32 µg/mL
- MBIC [3]: 32 µg/mL
- MIC [4]: 8 µg/mL
- MIC [5]: 1 µg/mL
- MIC [6]: 16 µg/mL
- MIC [7]: 4 µg/mL
- MBEC [8]: 64 µg/mL
- MBIC [8]: 16 µg/mL
- MIC [9]: 8 µg/mL
- MBEC [10]: 64 µg/mL
- MBIC [10]: 32 µg/mL
- MBEC [11]: 64 µg/mL
- MBIC [11]: 32 µg/mL
- MIC [12]: 16 µg/mL
- MBEC [13]: 16 µg/mL
- MBIC [13]: 2 µg/mL
- MBEC [14]: 32 µg/mL
- MBIC [14]: 1 µg/mL
- mean MBEC (corrected values) ([15]; 24 h): 38.86 µg/mL
- mean MBEC (initial values) ([15]; 24 h): 45.71 µg/mL
- mean MBIC (initial values) [15]: 17.46 µg/mL
- mean MBIC (corrected values) ([15]; biofilm of reference and clinical strains of staphylococci, 24 h): 14.84 µg/mL
- MIC [16]: 8 µg/mL
- MIC [17]: 8 µg/mL
- MIC [18]: 16 µg/mL
- MBEC [19]: 32 µg/mL
- MBIC [19]: 16 µg/mL
- MIC [20]: 16 µg/mL
- mean MIC (corrected values) [21]: 6.77 µg/mL
- mean MIC (initial values) [21]: 7.96 µg/mL
- MIC [22]: 1 µg/mL
- MBEC [23]: 64 µg/mL
- MBIC [23]: 32 µg/mL
- MBEC [24]: 32 µg/mL
- MBIC [24]: 1 µg/mL
- MBEC [25]: 32 µg/mL
- MBIC [25]: 16 µg/mL
- MIC [26]: 8 µg/mL
- MIC [27]: 1 µg/mL
- MBEC [28]: 64 µg/mL
- MBIC [28]: 16 µg/mL
- MBEC [29]: 64 µg/mL
- MBIC [29]: 32 µg/mL
- MBEC [30]: 16 µg/mL
- MIC [31]: 0.5 µg/mL
- MBEC [32]: 64 µg/mL
- MBIC [32]: 16 µg/mL

Substance: KRRWPWWPWRLI-NH2 [Retro-omiganan AcO^−]
- IC50 [1]: 23.66 µg/mL
- MBEC [8]: 32 µg/mL
- MBIC [8]: 16 µg/mL
- MIC [9]: 16 µg/mL
- mean MBEC (initial values) ([15]; 24 h): 32.00 µg/mL
- MIC [16]: 16 µg/mL
- MIC [17]: 16 µg/mL
- MIC [18]: 16 µg/mL
- MIC [20]: 16 µg/mL
- mean MIC (initial values) [21]: 10.00 µg/mL
- MBEC [23]: 64 µg/mL
- MBIC [23]: 32 µg/mL
- MBEC [25]: 32 µg/mL
- MBIC [25]: 16 µg/mL
- MBEC [28]: 32 µg/mL
- MBIC [28]: 16 µg/mL
- MBEC [29]: 32 µg/mL
- MBIC [29]: 32 µg/mL
